# Measurements: ChEMBL document CHEMBL1136388, “EDTA bis-(methyl tyrosinate): a chelating peptoid peroxynitrite scavenger” (Bioorg Med Chem Lett, 2003)
# Test: pKa value was determined
# Format: physicochemical
compound,measurement,value
COC(=O)C(Cc1ccc(O)cc1)NC(=O)CN(CCN(CC(=O)O)CC(=O)NC(Cc1ccc(O)cc1)C(=O)OC)CC(=O)O (stereo unspecified),pKa,6.8
